# Structures can show the parent of a compound that is named as a salt. Where two headings read alike, the source gives them in different places.
# Tests used:
# Assay in all cases: Antianaerobic activity, MIC by standard broth dilution method (Table II)
# Assay type in all cases: cell-based
# [1] = tested on: C. sporogenes ATCC 19404; conditions: Clostridium sporogenes, ATCC19404, 24 h
# Protocol: The activity of the compounds identified in the Table II below was tested for antianaerobic activity against one strain of Bacteroides fragilis, one strain of Bacteroides uniformis, one strain of Clostridium sporogenes and one strain of Trichomonas vaginalis as the test organism. The methods used involved determining the minimum inhibitory concentration by the standard broth dilution method. The values for metronidazole (2-methyl-5-nitro-1H-imidazole-1-ethanol) are given above for reference purposes. For convenience the compounds are referred to by an internal reference number (an HC number) and this is correlated with the number of the Example wherein its production is described.
# [2] = tested on: B. fragilis ATCC 23745; conditions: Bacteroides fragilis, ATCC23745, 24 h, read-out: Minimal Inhibitory Concentration (MIC)
# Protocol: (§1) The activity of the compounds identified in the Table II below was tested for antianaerobic activity against one strain of Bacteroides fragilis, one strain of Bacteroides uniformis, one strain of Clostridium sporogenes and one strain of Trichomonas vaginalis as the test organism. The methods used involved determining the minimum inhibitory concentration by the standard broth dilution method. […] For convenience the compounds are referred to by an internal reference number (an HC number) and this is correlated with the number of the Example wherein its production is described.
# [3] = tested on: B. uniformis ATCC 8492; conditions: Bacteroides uniformis, ATCC8492, 24 h, read-out: Minimal Inhibitory Concentration (MIC)
# Protocol: as §1
# [4] = tested on: T. vaginalis ATCC 30001; conditions: Trichomonas vaginalis, ATCC30001, 24 h, read-out: Minimal Inhibitory Concentration (MIC)
# Protocol: as §1
# [5] = Test 1, read-out: Minimal Inhibitory Concentration (MIC)
# [6] = Test 2, read-out: Minimal Inhibitory Concentration (MIC)
# [7] = Test 3, read-out: Minimal Inhibitory Concentration (MIC)
SMILES,"MIC [1, 5] [µg/mL]","MIC [1, 6] [µg/mL]","MIC [1, 7] [µg/mL]",MIC ([2]; Test 1) [µg/mL],MIC ([2]; Test 2) [µg/mL],MIC ([2]; Test 3) [µg/mL],MIC ([3]; Test 1) [µg/mL],MIC ([3]; Test 2) [µg/mL],MIC ([3]; Test 3) [µg/mL],MIC ([4]; Test 1) [µg/mL],MIC ([4]; Test 2) [µg/mL],MIC ([4]; Test 3) [µg/mL],"MIC ([1]; read-out: Minimal Inhibitory Concentration (MIC), Test 1) [µg/mL]","MIC ([1]; read-out: Minimal Inhibitory Concentration (MIC), Test 3) [µg/mL]"
"Clc1ccc(NN=C(Cn2ccnc2)c2ccc(Cl)s2)c(Cl)c1 [HC-363, 1-(5-chlorothien-2-yl)-2-(1H-imidazol-1-yl) ethanone, 2,4-dichlorophenylhydrazone, hydrochloride]",2.5,2.5,7.5,1,2.5,2.5,2.5,2.5,2.5,50,50,50,,
"CC(C(=NNc1c(Cl)cc(Cl)cc1Cl)c1ccc(Cl)cc1)n1ccnc1 (stereo not drawn) [HC-561, 1-(4-chlorophenyl)-2-(1H-imidazol-1-yl)propanone, 2,4,6-trichlorophenylhydrazone, hydrochloride]",1,1,1,1,2.5,5,5,7.5,7.5,> 100,> 100,> 100,,
"Cl.Clc1ccc(Cl)c(NN=C(Cn2ccnc2)c2ccccc2Cl)c1 [HC-469, 1-(2-chlorophenyl)-2-(1H-imidazol-1-yl)ethanone, 2,5-dichlorophenylhydrazone, hydrochloride]",2.5,7.5,1,5,5,10,5,1,2.5,50,75,100,,
"Cl.Clc1ccc(C(Cn2ccnc2)=NNc2ccccc2Br)cc1 [HC-486, 1-(4-chlorophenyl)-2-(1H-imidazol-1-yl)ethanone, 2-bromophenylhydrazone, hydrochloride]",2.5,5,5,5,5,5,2.5,2.5,5,50,50,75,,
"Cl.Clc1ccc(C(Cn2ccnc2)=NNc2c(Cl)cc(Cl)cc2Cl)c(Cl)c1 [HC-420, 1-(2,4-dichlorophenyl)-2-(1H-imidazol-1-yl)ethanone, 2,4,6-trichlorophenylhydrazone, hydrochloride]",10,2.5,2.5,10,2.5,2.5,10,1,2.5,50,50,50,,
"Cl.Fc1ccccc1C(Cn1ccnc1)=NNc1cccc(Cl)c1Cl [HC-507, 1-(2-fluorophenyl)-2-(1H-imidazol-1-yl)ethanone, 2,3-dichlorophenylhydrazone, hydrochloride]",2.5,2.5,,2.5,5,,5,2.5,,,,,,
"Cl.Clc1cccc(Cl)c1NN=C(Cn1ccnc1)c1ccc(Br)cc1 [HC-364, 1-(4-bromophenyl)-2-(1H-imidazol-1-yl)ethanone, 2,6-dichlorophenylhydrazone, hydrochloride]",10,5,25,10,2.5,5,10,2.5,2.5,50,50,50,,
"Cl.FC(F)(F)c1ccc(C(Cn2ccnc2)=NNc2c(Cl)cc(Cl)cc2Cl)cc1 [HC-482, 1-(4-trifluoromethylphenyl)-2-(1H-imidazol-1-yl)ethanone, 2,4,6-trichlorophenylhydrazone, hydrochloride]",5,5,5,5,5,5,2.5,2.5,2.5,25,25,25,,
"Cl.Clc1ccc(NN=C(Cn2ccnc2)c2ccccc2)c(Cl)c1 [HC-306, 1-Phenyl-2-(1H-imidazol-1-yl)ethanone, 2,4-dichlorophenylhydrazone, hydrochloride]",10,2.5,2.5,10,2.5,2.5,10,2.5,2.5,50,50,25,,
"Cl.Clc1ccc(NN=C(Cn2ccnc2)c2ccccc2)cc1Cl [HC-442, 1-phenyl-2-(1H-imidazol-1-yl)ethanone, 3,4-dichlorophenylhydrazone, hydrochloride]",5,2.5,2.5,2.5,5,5,2.5,5,5,50,75,100,,
"Cl.Fc1ccc(C(Cn2ccnc2)=NNc2ccc(Cl)c(Cl)c2)cc1 [HC-506, 1-(4-fluorophenyl)-2-(1H-imidazol-1-yl)ethanone, 3,4-dichlorophenylhydrazone, hydrochloride]",> 50,> 50,,5,5,,5,2.5,,,,,,
"Clc1ccc(NN=C(Cn2ccnc2)c2ccc(Br)cc2)c(Cl)c1 [HC-378, 1-(4-bromophenyl)-2-(1H-imidazol-1-yl) ethanone, 2,4-dichlorophenylhydrazone, hydrochloride]",50,25,25,10,2.5,2.5,10,2.5,5,> 50,> 50,50,,
"CC(C(=NNc1c(Cl)cccc1Cl)c1ccc(Cl)cc1)n1ccnc1 (stereo not drawn) [HC-403, 1-(4-chlorophenyl)-2-(1H-imidazol-1-yl)propanone, 2,6-dichlorophenylhydrazone, hydrochloride]",,7.5,,5,2.5,5,2.5,2.5,2.5,< 50,7.5,< 50,1,50

# Reference: patent US4351948A, “Imidazole hydrazone derivatives” (priority 1980, dated 1982)
